Each compound was assayed on A549 cells (assay: Cellular proliferation/cytotoxicity assay (Alamar Blue), A549). Conditions: Homo sapiens, 72 h, Alamar Blue (Resazurin), read-out: Anti-proliterative/Cytotoxic activity (A549 cells).
Type: cell-based
Description: Cellular Proliferation/Cytotoxicity Assay:
The anti-proliferative activity of the compounds as described herein, is evaluated using the OvCAR3, HCT116 and A549 cell lines and the Alamar Blue (Resazurin) cell viability assay (O'Brien et al. Eur J Biochem 267, 5421-5426, 2000). Resazurin is reduced to the fluorescent resorufin by cellular dehydrogenase activity, correlating with viable, proliferating cells. Test compounds are dissolved as 10 mM solutions in DMSO and subsequently diluted. Cells like HCT116 or A549 cells were seeded into 96 well flat bottom plates at a density of 10000 cells/well (OvCAR3 cells), 1000 cells/well (HCT116 cells) or 2000 cells/well (A549 cells) in a volume of 200 μl/well. 24 hours after seeding, 1 μl each of the compound dilutions are added into each well of the 96 well plates. Each compound dilution is tested as at least as duplicates. Wells containing untreated control cells were filled with 200 μl DMEM (Dulbecco's Modified Eagle Medium) containing 0.5 vol % v:v DMSO. The cells are then incubated with the substances for 72 h at 37° C. in a humidified atmosphere containing 5 vol % CO2. To determine the viability of the cells, 20 μl of a Resazurin solution (90 mg/l) are added. After 4 h incubation at 37° C., the fluorescence is measured by extinction at λ=544 nm and an emission of λ=590 nm (Wallac Victor2; Perkin Elmer, USA). For the calculation of the cell viability, the emission value from untreated cells is set as 100% viability and the fluorescence intensity of treated cells are set in relation to the values of untreated cells. Viabilities are expressed as % values. The corresponding IC50 values of the compounds for cytotoxic activity are determined from the concentration-effect curves by means of non-linear regression. The analysis of the data is performed using a biostatistical program (GraphPad Prism, USA).
Representative IC50 values for anti-proliferative/cytotoxic potency determined in the aforementioned assay follow from the following table, in which the numbers of the compound correspond to the numbers of the examples.

`c1ccc(-c2cn3nccc3nc2-c2ccc(CN3CCC(c4nc(-c5ccc[nH]5)n[nH]4)CC3)cc2)cc1` [Example 72, 6-Phenyl-5-[4-({4-[3-(1H-pyrrol-2-yl)-1H-1,2,4-triazol-5-yl]piperidin-1-yl}methyl)phenyl]pyrazolo[1,5-a]pyrimidine] and `c1ccc(-c2cn3nccc3nc2-c2ccc(CN3CCC(c4nc(-c5ccco5)n[nH]4)CC3)cc2)cc1` [Example 81, 5-[4-({4-[3-(2-furyl)-1H-1,2,4-triazol-5-yl]piperidin-1-yl}methyl)phenyl]-6-phenylpyrazolo[1,5-a]pyrimidine] cannot be ordered by IC50: < 10 µM for the first, < 10 µM for the second.

Compared with `FC(F)(F)c1nc2nc(-c3ccc(CN4CCC(c5n[nH]c(-c6ccccn6)n5)CC4)cc3)c(-c3ccccc3)cn2n1` [Example 63, 6-Phenyl-5-(4-{[4-(5-pyridin-2-yl-1H-1,2,4-triazol-3-yl)piperidin-1-yl]methyl}phenyl)-2-(trifluoromethyl)[1,2,4]triazolo[1,5-a]pyrimidine], `Brc1nc2nc(-c3ccc(CN4CCC(c5n[nH]c(-c6ccccn6)n5)CC4)cc3)c(-c3ccccc3)cn2n1` [Example 52, 2-Bromo-6-phenyl-5-(4-{[4-(5-pyridin-2-yl-1H-1,2,4-triazol-3-yl)piperidin-1-yl]methyl}phenyl)[1,2,4]triazolo[1,5-a]pyrimidine] is lower in IC50: > 10 µM for the first, < 10 µM for the second.

`Cc1nc2nc(-c3ccc(CN4CCC(c5n[nH]c(-c6nccs6)n5)CC4)cc3)c(-c3ccccc3)cn2n1` [Example 43, 2-Methyl-6-phenyl-5-[4-({4-[5-(1,3-thiazol-2-yl)-1H-1,2,4-triazol-3-yl]piperidin-1-yl}methyl)phenyl][1,2,4]triazolo[1,5-a]pyrimidine] and `Cc1nc2nc(-c3ccc(CN4CCC(c5n[nH]c(-c6ccncc6)n5)CC4)cc3)c(-c3ccccc3)cn2n1` [Example 47, 2-Methyl-6-phenyl-5-(4-{[4-(5-pyridin-4-yl-1H-1,2,4-triazol-3-yl)piperidin-1-yl]methyl}phenyl)[1,2,4]triazolo[1,5-a]pyrimidine] cannot be ordered by IC50: < 10 µM for the first, < 10 µM for the second.

`c1ccc(-c2cn3ccnc3nc2-c2ccc(CN3CCC(c4nc(-c5ccco5)n[nH]4)CC3)cc2)cc1` [Example 82, 7-[4-({4-[3-(2-furyl)-1H-1,2,4-triazol-5-yl]piperidin-1-yl}methyl)phenyl]-6-phenylimidazo[1,2-a]pyrimidine] and `Cc1nc2nc(-c3ccc(CN4CCC(c5nc(-c6ccco6)n[nH]5)CC4)cc3)c(-c3ccccc3)cn2n1` [Example 80, 5-[4-({4-[3-(2-furyl)-1H-1,2,4-triazol-5-yl]piperidin-1-yl}methyl)phenyl]-2-methyl-6-phenyl[1,2,4]triazolo[1,5-a]pyrimidine] cannot be ordered by IC50: > 10 µM for the first, > 10 µM for the second.

`Cc1cccc(-c2n[nH]c(C3CCN(Cc4ccc(-c5nc6nc(C)nn6cc5-c5ccccc5)cc4)CC3)n2)n1` [Example 74, 2-Methyl-5-[4-({4-[3-(6-methylpyridin-2-yl)-1H-1,2,4-triazol-5-yl]piperidin-1-yl}methyl)phenyl]-6-phenyl[1,2,4]triazolo[1,5-a]pyrimidine] and `Cc1nc2nc(-c3ccc(CN4CCC(c5nc(-c6ccc[nH]6)n[nH]5)CC4)cc3)c(-c3ccccc3)cn2n1` [Example 73, 2-Methyl-6-phenyl-5-[4-({4-[3-(1H-pyrrol-2-yl)-1H-1,2,4-triazol-5-yl]piperidin-1-yl}methyl)phenyl][1,2,4]triazolo[1,5-a]pyrimidine] cannot be ordered by IC50: < 10 µM for the first, < 10 µM for the second.

Going from `c1ccc(-c2cn3nc(C4CC4)cc3nc2-c2ccc(CN3CCC(c4n[nH]c(-c5ccccn5)n4)CC3)cc2)cc1` [Example 48, 2-Cyclopropyl-6-phenyl-5-(4-{[4-(5-pyridin-2-yl-1H-1,2,4-triazol-3-yl)piperidin-1-yl]methyl}phenyl)pyrazolo[1,5-a]pyrimidine] to `Cc1cc2nc(-c3ccc(CN4CCC(c5n[nH]c(-c6ccccn6)n5)CC4)cc3)c(-c3ccccc3)cn2n1` [Example 44, 2-Methyl-6-phenyl-5-(4-{[4-(5-pyridin-2-yl-1H-1,2,4-triazol-3-yl)piperidin-1-yl]methyl}phenyl)pyrazolo[1,5-a]pyrimidine], the IC50 rises from < 10 µM to > 10 µM.

`c1ccc(-c2cn3nccc3nc2-c2ccc(CN3CCC(c4nc(-c5ccncc5)n[nH]4)CC3)cc2)cc1` [Example 71, 6-Phenyl-5-(4-{[4-(3-pyridin-4-yl-1H-1,2,4-triazol-5-yl)piperidin-1-yl]methyl}phenyl)pyrazolo[1,5-a]pyrimidine] and `c1ccc(-c2cn3nccc3nc2-c2ccc(CN3CCC(c4nc(-c5ncccn5)n[nH]4)CC3)cc2)cc1` [Example 69, 6-Phenyl-5-(4-{[4-(3-pyrimidin-2-yl-1H-1,2,4-triazol-5-yl)piperidin-1-yl]methyl}phenyl)pyrazolo[1,5-a]pyrimidine] cannot be ordered by IC50: > 10 µM for the first, > 10 µM for the second.

`C#Cc1nc2nc(-c3ccc(CN4CCC(c5n[nH]c(-c6ccccn6)n5)CC4)cc3)c(-c3ccccc3)cn2n1` [Example 53, 2-Ethynyl-6-phenyl-5-(4-{[4-(5-pyridin-2-yl-1H-1,2,4-triazol-3-yl)piperidin-1-yl]methyl}phenyl)[1,2,4]triazolo[1,5-a]pyrimidine] and `COc1nc2nc(-c3ccc(CN4CCC(c5n[nH]c(-c6ccccn6)n5)CC4)cc3)c(-c3ccccc3)cn2n1` [Example 66, 2-Methoxy-6-phenyl-5-(4-{[4-(5-pyridin-2-yl-1H-1,2,4-triazol-3-yl)piperidin-1-yl]methyl}phenyl)[1,2,4]triazolo[1,5-a]pyrimidine] cannot be ordered by IC50: < 10 µM for the first, < 10 µM for the second.

`COC(=O)c1cc2nc(-c3ccc(CN4CCC(c5n[nH]c(-c6ccccn6)n5)CC4)cc3)c(-c3ccccc3)cn2n1` [Example 77, Methyl 6-phenyl-5-(4-{[4-(5-pyridin-2-yl-1H-1,2,4-triazol-3-yl)piperidin-1-yl]methyl}phenyl)pyrazolo[1,5-a]pyrimidine-2-carboxylate] and `O=C(O)c1cc2nc(-c3ccc(CN4CCC(c5n[nH]c(-c6ccccn6)n5)CC4)cc3)c(-c3ccccc3)cn2n1` [Example 79, 6-Phenyl-5-(4-{[4-(5-pyridin-2-yl-1H-1,2,4-triazol-3-yl)piperidin-1-yl]methyl}phenyl)pyrazolo[1,5-a]pyrimidine-2-carboxylic acid] cannot be ordered by IC50: < 10 µM for the first, < 10 µM for the second.

`c1ccc(-c2cn3nccc3nc2-c2ccc(CN3CCC(c4nc(-c5nccs5)n[nH]4)CC3)cc2)cc1` [Example 70, 6-Phenyl-5-[4-({4-[3-(1,3-thiazol-2-yl)-1H-1,2,4-triazol-5-yl]piperidin-1-yl}methyl)phenyl]pyrazolo[1,5-a]pyrimidine] and `c1ccc(-c2cn3nccc3nc2-c2ccc(CN3CCC(c4cc(-c5ccccn5)n[nH]4)CC3)cc2)cc1` [Example 76, 6-Phenyl-5-(4-{[4-(3-pyridin-2-yl-1H-pyrazol-5-yl)piperidin-1-yl]methyl}phenyl)pyrazolo[1,5-a]pyrimidine] cannot be ordered by IC50: > 10 µM for the first, > 10 µM for the second.

First: NC(=O)c1cc2nc(-c3ccc(CN4CCC(c5n[nH]c(-c6ccccn6)n5)CC4)cc3)c(-c3ccccc3)cn2n1 [Example 78, 6-Phenyl-5-(4-{[4-(5-pyridin-2-yl-1H-1,2,4-triazol-3-yl)piperidin-1-yl]methyl}phenyl)pyrazolo[1,5-a]pyrimidine-2-carboxamide]
Second: CNc1nc2nc(-c3ccc(CN4CCC(c5n[nH]c(-c6ccccn6)n5)CC4)cc3)c(-c3ccccc3)cn2n1 [Example 65, N-Methyl-6-phenyl-5-(4-{[4-(5-pyridin-2-yl-1H-1,2,4-triazol-3-yl)piperidin-1-yl]methyl}phenyl)[1,2,4]triazolo[1,5-a]pyrimidin-2-amine]
The IC50 of the first is higher: > 10 µM for the first, < 10 µM for the second.

`CN(C)c1nc2nc(-c3ccc(CN4CCC(c5n[nH]c(-c6ccccn6)n5)CC4)cc3)c(-c3ccccc3)cn2n1` [Example 62, N,N-Dimethyl-6-phenyl-5-(4-{[4-(5-pyridin-2-yl-1H-1,2,4-triazol-3-yl)piperidin-1-yl]methyl}phenyl)[1,2,4]triazolo[1,5-a]pyrimidin-2-amine] and `Cc1nc2nc(-c3ccc(CN4CCC(c5n[nH]c(-c6ccccn6)n5)CC4)cc3)c(-c3ccccc3)c(N(C)C)n2n1` [Example 64, N,N,2-Trimethyl-6-phenyl-5-(4-{[4-(5-pyridin-2-yl-1H-1,2,4-triazol-3-yl)piperidin-1-yl]methyl}phenyl)[1,2,4]triazolo[1,5-a]pyrimidin-7-amine] cannot be ordered by IC50: < 10 µM for the first, < 10 µM for the second.

`Cc1nc2nc(-c3ccc(CN4CCC(c5n[nH]c(-c6ccccn6)n5)CC4)cc3)c(-c3ccsc3)cn2n1` [Example 54, 2-Methyl-5-(4-{[4-(5-pyridin-2-yl-1H-1,2,4-triazol-3-yl)piperidin-1-yl]methyl}phenyl)-6-(3-thienyl)[1,2,4]triazolo[1,5-a]pyrimidine] and `c1ccc(-c2nc(C3CCN(Cc4ccc(-c5nc6nccn6cc5-c5ccsc5)cc4)CC3)n[nH]2)nc1` [Example 51, 7-(4-{[4-(5-Pyridin-2-yl-1H-1,2,4-triazol-3-yl)piperidin-1-yl]methyl}phenyl)-6-(3-thienyl)imidazo[1,2-a]pyrimidine] cannot be ordered by IC50: < 10 µM for the first, < 10 µM for the second.

Reference: patent US8614218B2, “Fused bicyclic pyrimidines” (Bayer Intellectual Property GmbH, priority 2007, dated 2013)
